According to patent publication US9423396B2, “Bodipy structure fluorescence probes for diverse biological applications” (National University of Singapore, priority 2011, dated 2016):

Assay: Spectroscopic measurements (absorption, emission, quantum yield, extinction coefficient)
Assay type: physicochemical
[1] = BDNCA library, difference emission minus absorption
[2] = BDNCA library, extinction coefficient; in M-1 cm-1 (unit assumed)
[3] = BDNCA library, fluorescence emission
[4] = absorption maximum, BDNCA library
[5] = difference of emission and absorption maxima
[6] = extinction coefficient, BDNCA library; in M-1 cm-1 (unit assumed)
[7] = fluorescence emission maximum, BDNCA library

Compound	Qunt. Yield (BDNCA library)	Abs (BDNCA library, absorption)	Flu-Abs [1]	ε [2]	Flu [3]	Abs [4]	Flu-Abs [5]	ε [6]	Flu [7]	Qunt. Yield (quantum yield, BDNCA library)
CC1=CC(/C=C/c2ccc(-c3cncnc3)cc2)=[N+]2C1=C(c1ccc(NC(=O)CCl)cc1)c1cccn1[B-]2(F)F [BDNCA-199]	0.15	563 nm	20	59,314	583	–	–	–	–	–
CC1=CC(/C=C/c2ccc(N(c3ccccc3)c3ccccc3)cc2)=[N+]2C1=C(c1ccc(NC(=O)CCl)cc1)c1cccn1[B-]2(F)F [BDNCA-14]	–	599 nm	–	35,149	–	–	–	–	–	–
Cc1cc(/C=C/c2ccc(OCc3ccc(F)cc3)cc2)n2c1C(c1ccc(NC(=O)CCl)cc1)=C1C=CC=[N+]1[B-]2(F)F [BDNCA-378]	–	–	–	–	–	566 nm	31	92,540	597	0.16
COc1ccc(/C=C/C2=[N+]3C(=C(c4ccc(NC(=O)CCl)cc4)c4cccn4[B-]3(F)F)C(C)=C2)cc1O [BDNCA-132]	0.02	569 nm	30	36,796	599	–	–	–	–	–
CC1=CC(/C=C/c2cccc(C)c2C)=[N+]2C1=C(c1ccc(NC(=O)CCl)cc1)c1cccn1[B-]2(F)F [BDNCA-349]	–	–	–	–	–	556 nm	22	36,247	578	0.03
CC1=CC(/C=C/c2cccc(I)c2)=[N+]2C1=C(c1ccc(NC(=O)CCl)cc1)c1cccn1[B-]2(F)F [BDNCA-303]	0.12	556 nm	19	70,847	575	–	–	–	–	–
Cc1cc(/C=C/c2ccc(CO)o2)n2c1C(c1ccc(NC(=O)CCl)cc1)=C1C=CC=[N+]1[B-]2(F)F [BDNCA-238]	0.05	575 nm	33	40,366	608	–	–	–	–	–
CC1=CC(/C=C/c2ccc(-c3ccccc3)c(F)c2)=[N+]2C1=C(c1ccc(NC(=O)CCl)cc1)c1cccn1[B-]2(F)F [BDNCA-425]	–	–	–	–	–	562 nm	21	46,957	583	0.11
CC1=CC(/C=C/c2nccn2C)=[N+]2C1=C(c1ccc(NC(=O)CCl)cc1)c1cccn1[B-]2(F)F [BDNCA-72]	0.02	573 nm	45	17,849	618	–	–	–	–	–
CC1=CC(/C=C/c2ccc(Cl)c(F)c2)=[N+]2C1=C(c1ccc(NC(=O)CCl)cc1)c1cccn1[B-]2(F)F [BDNCA-437]	–	–	–	–	–	556 nm	19	47,506	575	0.09
CC1=CC(/C=C/c2ccc(I)cc2)=[N+]2C1=C(c1ccc(NC(=O)CCl)cc1)c1cccn1[B-]2(F)F [BDNCA-237]	0.13	560 nm	19	70,572	579	–	–	–	–	–
CCOc1ccc(/C=C/C2=[N+]3C(=C(c4ccc(NC(=O)CCl)cc4)c4cccn4[B-]3(F)F)C(C)=C2)cc1OCC [BDNCA-53]	0.06	570 nm	51	31,579	621	–	–	–	–	–
CC1=CC(/C=C/c2csc3ccccc23)=[N+]2C1=C(c1ccc(NC(=O)CCl)cc1)c1cccn1[B-]2(F)F [BDNCA-37]	0.14	567 nm	33	71,121	600	–	–	–	–	–
CCCCc1ccc(/C=C/C2=[N+]3C(=C(c4ccc(NC(=O)CCl)cc4)c4cccn4[B-]3(F)F)C(C)=C2)cc1 [BDNCA-263]	0.17	559 nm	23	124,394	582	–	–	–	–	–
COc1cc(C=CC=CC2=[N+]3C(=C(c4ccc(NC(=O)CCl)cc4)c4cccn4[B-]3(F)F)C(C)=C2)ccc1OC(C)=O [BDNCA-44]	weak	580 nm	–	12,632	weak	–	–	–	–	–
COc1ccc(/C=C/c2cc(C)c3n2[B-](F)(F)[N+]2=CC=CC2=C3c2ccc(NC(=O)CCl)cc2)c(Br)c1O [BDNCA-261]	0.01	567 nm	29	49,703	596	–	–	–	–	–
CCCCOc1ccc(/C=C/C2=[N+]3C(=C(c4ccc(NC(=O)CCl)cc4)c4cccn4[B-]3(F)F)C(C)=C2)cc1 [BDNCA-46]	0.10	566 nm	32	42,563	598	–	–	–	–	–
Cc1cc(/C=C/c2cccc(Br)c2O)n2c1C(c1ccc(NC(=O)CCl)cc1)=C1C=CC=[N+]1[B-]2(F)F [BDNCA-256]	0.04	561 nm	21	52,449	582	–	–	–	–	–
COc1cc(Cl)cc(/C=C/C2=[N+]3C(=C(c4ccc(NC(=O)CCl)cc4)c4cccn4[B-]3(F)F)C(C)=C2)c1O [BDNCA-275]	0.01	563 nm	22	60,686	585	–	–	–	–	–
CC1=CC(/C=C/c2ccc(O)cc2)=[N+]2C1=C(c1ccc(NC(=O)CCl)cc1)c1cccn1[B-]2(F)F [BDNCA-153]	0.05	569 nm	37	23,341	606	–	–	–	–	–
CCCOc1ccc(/C=C/c2cc(C)c3n2[B-](F)(F)[N+]2=CC=CC2=C3c2ccc(NC(=O)CCl)cc2)cc1 [BDNCA-140]	0.07	566 nm	32	27,185	598	–	–	–	–	–
CC(=O)Nc1ccc(/C=C/C2=[N+]3C(=C(c4ccc(NC(=O)CCl)cc4)c4cccn4[B-]3(F)F)C(C)=C2)cc1 [BDNCA-111]	0.04	570 nm	29	18,947	599	–	–	–	–	–
COc1cc(Cl)cc(/C=C/C2=[N+]3C(=C(c4ccc(NC(=O)CCl)cc4)c4cccn4[B-]3(F)F)C(C)=C2)c1OC [BDNCA-282]	0.12	557 nm	20	52,723	577	–	–	–	–	–
COc1cc2ccccc2c(/C=C/C2=[N+]3C(=C(c4ccc(NC(=O)CCl)cc4)c4cccn4[B-]3(F)F)C(C)=C2)c1OC [BDNCA-301]	0.24	567 nm	36	85,950	603	–	–	–	–	–
CC1=CC(/C=C/C=C/c2ccco2)=[N+]2C1=C(c1ccc(NC(=O)CCl)cc1)c1cccn1[B-]2(F)F [BDNCA-417]	–	–	–	–	–	519 nm	–	13,730	weak	weak
CC1=CC(/C=C/c2cccc(Oc3ccc(Cl)c(Cl)c3)c2)=[N+]2C1=C(c1ccc(NC(=O)CCl)cc1)c1cccn1[B-]2(F)F [BDNCA-299]	0.09	556 nm	19	49,703	575	–	–	–	–	–
Cc1cc(/C=C/c2ccc(N(C)C)c3ccccc23)n2c1C(c1ccc(NC(=O)CCl)cc1)=C1C=CC=[N+]1[B-]2(F)F [BDNCA-377]	–	–	–	–	–	590 nm	–	58,215	weak	weak
